Measurements taken from patent US20110293745A1, “AURORA KINASE INHIBITORS” (SUNESIS PHARMACEUTICALS, INC., priority 2008, published 2011).
Like-named read-outs stand apart in the source and are kept apart here.

Columns and labels:
[1] = Humidity-controlled form conversion; assay type: physicochemical
Description: The samples were monitored each week for a total duration of five weeks. Each sample was tested by XRPD, DSC, TGA, and Karl Fisher analysis.

[2] = Dynamic Vapor Sorption (DVS); assay type: physicochemical; conditions: for DVS Result (hygroscopicity): Dynamic Vapor Sorption of crystalline form of Compound 1
Description: DVS experiments were carried out on all available forms by first drying the sample at 0% RH and 25° C. until an equilibrium weight was reached or a maximum of four hours. The sample was then subjected to an isothermal (25° C.) adsorption scan from 10 to 90% RH in steps of 10% RH. The sample was allowed to equilibrate to an asymptotic weight at each point for a maximum of four hours. Following adsorption, a desorption scan from […] to 0% RH (at 25° C.) was run in steps of −10% RH again allowing a maximum of four hours for equilibration to an asymptotic weight. The sample was then dried for two hours at 80° C. and the resulting solid analyzed by XRPD.

[3] = Description: The solvents were chosen based on differences in polarity and functionality and on their classification according to the International Conference on Harmonization (ICH), with preference given to class II and class III solvents. After each addition of solvent, the vials were visually inspected to assess dissolution and further heated to 55° C. to ensure dissolution.
[4] = Reslurry of Form A in 20 solvents; assay type: physicochemical; conditions: THF, EtOAc, MeCN, acetone, MEK, IPA, dioxane, MTBE, IPAc, heptane, CH2Cl2, toluene; room temperature, two weeks
Description: Various amounts of solvents were added to each vial to form slurries which were allowed to stir at room temperature for two weeks. The slurries were then filtered with the help of a gentle nitrogen flow. The samples were further dried in vacuo at room temperature for two hours, except the sample from formamide which was dried in vacuo for about 20 hours.
After two weeks, the samples were filtered and then analyzed by XRPD, DSC, and TGA. Three new forms were found from the slurry studies. These Forms I, K, and L were generated from AcOH, NMP, and DMF, respectively. The slurry samples from other solvents afforded results consistent with the single solvent recrystallizations. […] Forms D, E, G, and H were generated from reslurry experiments in DMA, formamide, methanol, and ethanol, respectively.

[5] = system: HCT 116 p53+/+; assay: In vitro combination, HCS cell count assay (CI50); assay type: cell-based, human; conditions: HCT 116 p53+/+ and p53−/−; dependent on ratios or p53 status
Description: A combination index compares the concentration of compounds dosed in combination required for a given fractional effect to the concentration of single agent compound required to give the same fractional affect. In this application, the fractional effect is EC50.
The equation above represents the theoretical additive response for two mutually exclusive drugs, and takes into consideration the ratio at which the two compounds are dosed. […].
[…]. High content cell imaging and a cell proliferation assay were used to measure the anti-proliferative effects of the compounds.
HCT 116 cells transfected with p53 RNAi or a control vector were cultured in DMEM, 10% FBS, and 1× antibiotic/antimycotic. Cells were plated in growth medium in black/clear Falcon® 384-well plates. Cells were treated to assess the effects of p53 status, drug dose ratios, and dose schedules. […]. […] All procedures were performed by a Tecan robotic platform.
After overnight growth, cells were treated with compound for a total of 72 hours and incubated at 37° C., 5% CO2. Cells were fixed in 4% formaldehyde and stained with 1:4000 dilution of 10 mg/mL Hoechst 33342. HCS images were captured and data analyzed using the Target Activation application, object count per field parameter, on the ArrayScan VTI instrument (Cellomics, Inc.).

[6] = system: HCT 116 p53−/− (p53 RNAi); assay: In vitro combination, HCS cell count assay (CI50); assay type: cell-based, human; conditions: p53−/− HCT 116 cells; high doses of vincristine
Description: Cells were plated in growth medium in black/clear Falcon® 384-well plates. Cells were treated to assess the effects of p53 status, drug dose ratios, and dose schedules. […] All procedures were performed by a Tecan robotic platform.

CS(=O)(=O)O.O=C(Nc1cccc(Cl)c1)Nc1ncc(CCNc2ncnc3ccsc23)s1 [A]
KF ([1]; 0% RH, week 1): 0.17 Wt % H2O
TGA Loss ([1]; 0% RH, week 1): 0.0 Wt %
KF ([1]; 0% RH, week 2): <0.1 Wt % H2O
TGA Loss ([1]; 0% RH, week 2): 0.0 Wt %
KF ([1]; 0% RH, week 3): 0.11 Wt % H2O
TGA Loss ([1]; 0% RH, week 3): 0.0 Wt %
KF ([1]; 0% RH, week 4): <0.1 Wt % H2O
TGA Loss ([1]; 0% RH, week 4): 0.0 Wt %
KF ([1]; 0% RH, week 5): 0.1 Wt % H2O
TGA Loss ([1]; 0% RH, week 5): 0.0 Wt %
KF ([1]; 20% RH, week 1): 0.16 Wt % H2O
TGA Loss ([1]; 20% RH, week 1): 0.0 Wt %
KF ([1]; 20% RH, week 2): 0.12 Wt % H2O
TGA Loss ([1]; 20% RH, week 2): 0.0 Wt %
KF ([1]; 20% RH, week 3): 0.11 Wt % H2O
TGA Loss ([1]; 20% RH, week 3): 0.0 Wt %
KF ([1]; 20% RH, week 4): <0.1 Wt % H2O
TGA Loss ([1]; 20% RH, week 4): 0.0 Wt %
KF ([1]; 20% RH, week 5): 0.2 Wt % H2O
TGA Loss ([1]; 20% RH, week 5): 0.0 Wt %
KF ([1]; 52% RH, week 1): 0.29 Wt % H2O
TGA Loss ([1]; 52% RH, week 1): 0.0 Wt %
KF ([1]; 52% RH, week 2): 0.16 Wt % H2O
TGA Loss ([1]; 52% RH, week 2): 0.0 Wt %
KF ([1]; 52% RH, week 3): 0.11 Wt % H2O
TGA Loss ([1]; 52% RH, week 3): 0.0 Wt %
KF ([1]; 75% RH, week 1): 0.12 Wt % H2O
TGA Loss ([1]; 75% RH, week 1): 0.0 Wt %
KF ([1]; 75% RH, week 2): 0.13 Wt % H2O
TGA Loss ([1]; 75% RH, week 2): 0.0 Wt %
KF ([1]; 75% RH, week 3): 0.19 Wt % H2O
TGA Loss ([1]; 75% RH, week 3): 0.0 Wt %
KF ([1]; 75% RH, week 4): <0.1 Wt % H2O
TGA Loss ([1]; 75% RH, week 4): 0.0 Wt %
KF ([1]; 75% RH, week 5): 0.3 Wt % H2O
TGA Loss ([1]; 75% RH, week 5): 0.0 Wt %
KF ([1]; 95% RH, week 1): 1.5 Wt % H2O
TGA Loss ([1]; 95% RH, week 1): 0.1 Wt %
KF ([1]; 95% RH, week 2): 3.2 Wt % H2O
KF ([1]; 95% RH, week 3): 3.7 Wt % H2O
KF ([1]; 95% RH, week 4): 3.5 Wt % H2O
TGA Loss ([1]; 95% RH, week 4): 1.5 Wt %
KF ([1]; 95% RH, week 5): 3.9 Wt % H2O
KF ([1]; starting point, week 0): 0.07 Wt % H2O
TGA Loss ([1]; starting point, week 0): 0.0 Wt %

CS(=O)(=O)O.O=C(Nc1cccc(Cl)c1)Nc1ncc(CCNc2ncnc3ccsc23)s1 [B]
KF ([1]; 0% RH, week 1): 1.4 Wt % H2O
KF ([1]; 0% RH, week 2): 3.4 Wt % H2O
KF ([1]; 0% RH, week 3): 3.6 Wt % H2O
KF ([1]; 0% RH, week 4): 3.0 Wt % H2O
KF ([1]; 0% RH, week 5): 3.4 Wt % H2O
KF ([1]; 20% RH, week 1): 3.3 Wt % H2O
KF ([1]; 20% RH, week 2): 3.7 Wt % H2O
KF ([1]; 20% RH, week 3): 3.6 Wt % H2O
KF ([1]; 20% RH, week 4): 3.4 Wt % H2O
KF ([1]; 20% RH, week 5): 3.5 Wt % H2O
KF ([1]; 52% RH, week 1): 3.0 Wt % H2O
KF ([1]; 52% RH, week 2): 3.6 Wt % H2O
KF ([1]; 52% RH, week 3): 3.7 Wt % H2O
KF ([1]; 52% RH, week 4): 3.3 Wt % H2O
KF ([1]; 52% RH, week 5): 3.6 Wt % H2O
KF ([1]; 75% RH, week 1): 3.4 Wt % H2O
KF ([1]; 75% RH, week 2): 3.4 Wt % H2O
KF ([1]; 75% RH, week 3): 2.4 Wt % H2O
KF ([1]; 75% RH, week 4): 3.3 Wt % H2O
KF ([1]; 95% RH, week 1): 3.2 Wt % H2O
KF ([1]; 95% RH, week 2): 3.5 Wt % H2O
KF ([1]; 95% RH, week 3): 4.6 Wt % H2O
TGA Loss ([1]; 95% RH, week 3): 3.2 Wt %
KF ([1]; 95% RH, week 4): 3.7 Wt % H2O
KF ([1]; 95% RH, week 5): 4.7 Wt % H2O
KF ([1]; starting point, week 0): 3.0 Wt % H2O
DVS Result (hygroscopicity) [2]: change, low

CS(=O)(=O)O.O=C(Nc1cccc(Cl)c1)Nc1ncc(CCNc2ncnc3ccsc23)s1 [E]
DVS Result (water uptake) ([2]; at 90% RH): change, 8.0 wt wt %

CS(=O)(=O)O.O=C(Nc1cccc(Cl)c1)Nc1ncc(CCNc2ncnc3ccsc23)s1 [Form A]
Approximate Solubility Conc. ([3]; Solvent AcOH, Temp RT): >17000 µg/mL
Soluble ([3]; Solvent AcOH, Temp RT): Yes
Approximate Solubility Conc. ([3]; Solvent Acetone, Temp 55): <370 µg/mL
Soluble ([3]; Solvent Acetone, Temp 55): No
Approximate Solubility Conc. ([3]; Solvent DCM, Temp 55): <430 µg/mL
Soluble ([3]; Solvent DCM, Temp 55): No
Approximate Solubility Conc. ([3]; Solvent DMA, Temp RT): >28000 µg/mL
Soluble ([3]; Solvent DMA, Temp RT): Yes
Approximate Solubility Conc. ([3]; Solvent DMF, Temp RT): >9000 µg/mL
Soluble ([3]; Solvent DMF, Temp RT): Yes
Approximate Solubility Conc. ([3]; Solvent Dioxane, Temp 55): <280 µg/mL
Soluble ([3]; Solvent Dioxane, Temp 55): No
Approximate Solubility Conc. ([3]; Solvent EtOAc, Temp 55): <250 µg/mL
Soluble ([3]; Solvent EtOAc, Temp 55): No
Approximate Solubility Conc. ([3]; Solvent EtOH, Temp 55): ~630 µg/mL
Soluble ([3]; Solvent EtOH, Temp 55): Yes
Approximate Solubility Conc. ([3]; Solvent Formamide, Temp RT): >16000 µg/mL
Soluble ([3]; Solvent Formamide, Temp RT): Yes
Approximate Solubility Conc. ([3]; Solvent Heptane, Temp 55): <430 µg/mL
Soluble ([3]; Solvent Heptane, Temp 55): No
Approximate Solubility Conc. ([3]; Solvent IPA, Temp 55): <300 µg/mL
Soluble ([3]; Solvent IPA, Temp 55): Partially
Approximate Solubility Conc. ([3]; Solvent IPAc, Temp 55): <400 µg/mL
Soluble ([3]; Solvent IPAc, Temp 55): No
Approximate Solubility Conc. ([3]; Solvent MEK, Temp 55): <480 µg/mL
Soluble ([3]; Solvent MEK, Temp 55): No
Approximate Solubility Conc. ([3]; Solvent MTBE, Temp 55): <200 µg/mL
Soluble ([3]; Solvent MTBE, Temp 55): No
Approximate Solubility Conc. ([3]; Solvent MeCN, Temp 55): <420 µg/mL
Soluble ([3]; Solvent MeCN, Temp 55): No
Approximate Solubility Conc. ([3]; Solvent MeOH, Temp 55): ~700 µg/mL
Soluble ([3]; Solvent MeOH, Temp 55): Yes
Approximate Solubility Conc. ([3]; Solvent NMP, Temp RT): >14000 µg/mL
Soluble ([3]; Solvent NMP, Temp RT): Yes
Approximate Solubility Conc. ([3]; Solvent THF, Temp 55): <320 µg/mL
Soluble ([3]; Solvent THF, Temp 55): No
Approximate Solubility Conc. ([3]; Solvent Toluene, Temp 55): <330 µg/mL
Soluble ([3]; Solvent Toluene, Temp 55): No
Approximate Solubility Conc. ([3]; Solvent Water, Temp 55): <280 µg/mL
Soluble ([3]; Solvent Water, Temp 55): No
solubility ([3]; in DMF, NMP, DMA, formamide, AcOH): soluble
solubility ([3]; in THF, EtOAc, MeCN, acetone, MEK, IPA, water, dioxane, MTBE, IPAc, heptane, CH2Cl2 and toluene): poor solubility
solubility ([3]; in methanol and ethanol): sparingly soluble
form conversion under humidity ([1]; 0, 25, 52, and 75% RH, five weeks): No form conversion
form conversion under humidity ([1]; 95% RH, two weeks): converted to Form B
form after reslurry [4]: remained unchanged

CS(=O)(=O)O.O=C(Nc1cccc(Cl)c1)Nc1ncc(CCNc2ncnc3ccsc23)s1 [Form B]
form conversion under humidity ([1]; all humidity chambers, five weeks): No form conversion

CS(=O)(=O)O.O=C(Nc1cccc(Cl)c1)Nc1ncc(CCNc2ncnc3ccsc23)s1 [G]
DVS Result (hygroscopicity) [2]: change, low

CC(=O)O[C@@]12CO[C@@H]1C[C@H](O)[C@@]1(C)C(=O)[C@H](O)C3=C(C)[C@@H](OC(=O)[C@H](O)[C@@H](NC(=O)OC(C)(C)C)c4ccccc4)C[C@@](O)([C@@H](OC(=O)c4ccccc4)[C@H]21)C3(C)C [docetaxel]
interaction with Compound 1 in cell count assay [5]: conditional synergies

Nc1ccn([C@@H]2O[C@H](CO)[C@@H](O)C2(F)F)c(=O)n1 [gemcitabine]
interaction with Compound 1 in cell count assay [5]: conditional synergies

CC[C@]1(O)C[C@H]2CN(CCc3c([nH]c4ccccc34)[C@@](C(=O)OC)(c3cc4c(cc3OC)N(C=O)[C@H]3[C@@](O)(C(=O)OC)[C@H](OC(C)=O)[C@]5(CC)C=CCN6CC[C@]43[C@@H]65)C2)C1 [vincristine]
interaction with Compound 1 in cell count assay [5]: conditional synergies
interaction with Compound 1, co-dosed [6]: Statistically significant synergy
